Read-outs that look alike come from different tables or passages of the source.
Experiments:
[1] = system: DU145 cells (non-PSMA-expressing); assay: cells; format: cell-based, human; conditions: read-out: IC50 DU145
Method: (§1) The cytotoxicities of PSMA-activated prodrug CPT-HT-J-ZLn and PSMA hydrolysate CPT-D-GLn were evaluated by MTT assays on PSMA-expressing (PSMA^+) cancer cell LNCaP-FGC, non-PSMA-expressing (PSMA^−) cancer cells HepG2, MCF-7, Hela, DU145, and PC-3, and normal cells MDCK, LO2, respectively, using CPT as a positive control.
(§2) The human prostate cancer cell line (LNCaP-FGC), human prostate cancer cell line (PC-3), human prostate cancer cell line (DU-145), human breast cancer cell line (MCF-7), human hepatocellular carcinoma cell line (HepG2), human cervical cancer cell line (Hela), were obtained from the Chinese Academy of Medical Sciences and Peking Union Medical College. The cultures of the cells were maintained as a monolayer in RPMI 1640 or DMEM supplemented with 10% (v/v) heat inactivated fetal bovine serum and 1% (v/v) enicillin/streptomycin (Corning, New York, NY, USA) and incubated at 37 °C in a humidified atmosphere with 5% CO2. The tested compounds were dissolved in DMSO (Sigma, St. Louis, MO, USA) and added at required concentrations to the cell culture.
(§3) The cytotoxicity of all the tested compounds was evaluated in vitro via the MTT method against PSMA-expressing LNCaP-FGC cells and non-PSMA-expressing cells HepG2, Hela, MCF-7, DU145, PC-3 cells using CPT as the positive control. Tumor cells growing in the logarithmic phase were seeded in 96-well plates at a density 3 × 10^3 cells/well and incubated overnight. The following day, cells were then treated with serial dilutions of the tested compounds for 72 h. At the end of this incubation, 20 µL of 5 mg/mL methylthiazol tetrazolium (MTT) was added to each well and incubation proceeded at 37 °C for another 4 h. After the supernatant medium was thrown away, 150 µL dimethylsulphoxide (DMSO) were added to each well and absorbance was measured at 490 nm using a plate reader (BIORAD 550 spectrophotometer, Bio-rad Life Science Development Ltd., Berkeley, CA, USA). Experiments were performed in triplicate and the values were the average of three (n = 3) independent experiments. The concentration of the compound that results in 50% growth inhibition corresponds to the IC50. Tumor cell growth inhibitory rate was calculated using Equation (1): % inhibition = (1 − Sample group OD/Control group OD) × 100%(1)

[2] = system: HepG2 cells (non-PSMA-expressing); assay: cells; format: cell-based, human; conditions: read-out: IC50 HepG2
Method: as §1, §2, §3

[3] = system: MCF-7 cells (non-PSMA-expressing); assay: cells; format: cell-based, human; conditions: read-out: IC50 MCF-7
Method: as §1, §2, §3

[4] = system: PC-3 cells (non-PSMA-expressing); assay: cells; format: cell-based, human; conditions: read-out: IC50 PC-3
Method: as §1, §2, §3

[5] = system: LNCaP-FGC cells (PSMA-expressing); assay: MTT cytotoxicity assay, LNCaP-FGC; format: cell-based, human; conditions: 72 h, read-out: IC50 LNCaP-FGC
Method: as §1, §2, §3

[6] = system: HeLa cells (non-PSMA-expressing); assay: MTT cytotoxicity assay, HeLa; format: cell-based, human; conditions: 72 h, mean ± SD, n = 3
Method: as §1
The tested compounds were dissolved in DMSO (Sigma, St. Louis, MO, USA) and added at required concentrations to the cell culture.
as §3, with “experiments.” for “experiments. The concentration of the compound that results in 50% growth inhibition corresponds to the IC50. Tumor cell growth inhibitory rate was calculated using Equation (1): % inhibition = (1 − Sample group OD/Control group OD) × 100%(1)”

[7] = system: LO2 cells; assay: cells; format: cell-based; conditions: read-out: IC50 LO2
Method: as §1, §3

[8] = system: MDCK cells; assay: cells; format: cell-based; conditions: 72 h, read-out: IC50 MDCK
Method: as §1, §3

SMILES	IC50 ([1]; Homo sapiens, DU-145, 72 h)	IC50 ([2]; Homo sapiens, HepG2, 72 h)	IC50 ([3]; Homo sapiens, MCF7, 72 h)	IC50 ([4]; Homo sapiens, PC-3, 72 h)	IC50 ([5]; Homo sapiens)	IC50 ([6]; Homo sapiens, HeLa)	IC50 ([7]; Homo sapiens, L02, 72 h)	IC50 ([8]; Canis lupus familiaris, MDCK)	IC50 ([1]; MTT, 72 h, mean ± SD, n = 3)	IC50 ([2]; MTT, 72 h, mean ± SD, n = 3)	IC50 ([3]; MTT, 72 h, mean ± SD, n = 3)	IC50 ([4]; MTT, 72 h, mean ± SD, n = 3)	IC50 ([5]; MTT, mean ± SD, n = 3, PSMA+)	IC50 [6]	IC50 ([7]; MTT, 72 h, normal cells)	IC50 ([8]; MTT, normal cells)
CC[C@@]1(OC(=O)CN)C(=O)OCc2c1cc1n(c2=O)Cc2cc3ccccc3nc2-1 [CPT-B-L2, (S)-4-ethyl-3,14-dioxo-3,4,12,14-tetrahydro-1H-pyrano[3′,4′:6,7]indolizino[1,2-b]quinolin-4-yl glycinate]	0.12 ± 0.09 µM	> 40 µM	4.11 ± 3.09 µM	5.19 ± 0.3 µM	0.38 ± 0.1 µM	10 ± 2 µM	5.61 ± 1.4 µM	5.16 ± 1.2 µM								
CC[C@@]1(OC(=O)CCCN)C(=O)OCc2c1cc1n(c2=O)Cc2cc3ccccc3nc2-1 [CPT-B-L4, (S)-4-ethyl-3,14-dioxo-3,4,12,14-tetrahydro-1H-pyrano[3′,4′:6,7]indolizino[1,2-b]quinolin-4-yl 4-aminobutanoate]	0.25 ± 0.13 µM	> 40 µM	1.58 ± 2.42 µM	1 ± 0.1 µM	0.37 ± 0.02 µM	4.37 ± 0.5 µM	1.36 ± 0.3 µM	3.2 ± 2 µM								
CC[C@@]1(OC(=O)CCCCCN)C(=O)OCc2c1cc1n(c2=O)Cc2cc3ccccc3nc2-1 [CPT-B-L6, (S)-4-ethyl-3,14-dioxo-3,4,12,14-tetrahydro-1H-pyrano[3′,4′:6,7]indolizino[1,2-b]quinolin-4-yl 6-aminohexanoate]	3.55 ± 0.95 µM	> 40 µM	6.76 ± 1.47 µM	15.9 ± 1.73 µM	1.89 ± 0.2 µM	15 ± 0.8 µM	2.71 ± 0.38 µM	5.44 ± 3 µM								
CC[C@@]1(OC(=O)CCCCCCCCCCCN)C(=O)OCc2c1cc1n(c2=O)Cc2cc3ccccc3nc2-1 [CPT-B-L12, (S)-4-ethyl-3,14-dioxo-3,4,12,14-tetrahydro-1H-pyrano[3′,4′:6,7]indolizino[1,2-b]quinolin-4-yl 12-aminododecanoate]	7.32 ± 1.43 µM	> 40 µM	5.76 ± 0.86 µM	6.45 ± 0.42 µM	1.93 ± 1.03 µM	> 40 µM	2.63 ± 0.84 µM	5.2 ± 0.88 µM								
CC[C@@]1(OC(=O)CNC(=O)[C@@H](N)CCC(=O)O)C(=O)OCc2c1cc1n(c2=O)Cc2cc3ccccc3nc2-1 [CPT-D-GL2, (S)-4-amino-5-((2-(((S)-4-ethyl-3,14-dioxo-3,4,12,14-tetrahydro-1H-pyrano[3′,4′:6,7]indolizino[1,2-b]quinolin-4-yl)oxy)-2-oxoethyl)amino)-5-oxopentanoic acid]	0.4 ± 0.05 µM	> 40 µM	0.3 ± 0.05 µM	1.5 ± 0.2 µM	3.68 ± 0.36 µM	> 40 µM	0.16 ± 0.07 µM	0.26 ± 0.14 µM								
CC[C@@]1(OC(=O)CCCNC(=O)[C@@H](N)CCC(=O)O)C(=O)OCc2c1cc1n(c2=O)Cc2cc3ccccc3nc2-1 [CPT-D-GL4, (S)-4-amino-5-((4-(((S)-4-ethyl-3,14-dioxo-3,4,12,14-tetrahydro-1H-pyrano[3′,4′:6,7]indolizino[1,2-b]quinolin-4-yl)oxy)-4-oxobutyl)amino)-5-oxopentanoic acid]	4.89 ± 0.01 µM	> 40 µM	4.03 ± 0.3 µM	14.9 ± 1 µM	3.68 ± 0.5 µM	> 40 µM	0.4 ± 0.15 µM	0.23 ± 0.1 µM								
CC[C@@]1(OC(=O)CCCCCNC(=O)[C@@H](N)CCC(=O)O)C(=O)OCc2c1cc1n(c2=O)Cc2cc3ccccc3nc2-1 [CPT-D-GL6, (S)-4-amino-5-((6-(((S)-4-ethyl-3,14-dioxo-3,4,12,14-tetrahydro-1H-pyrano[3′,4′:6,7]indolizino[1,2-b]quinolin-4-yl)oxy)-6-oxohexyl)amino)-5-oxopentanoic acid]	3.97 ± 0.16 µM	> 40 µM	17.2 ± 3 µM	12.5 ± 0.8 µM	8.17 ± 1 µM	> 40 µM	1.5 ± 0.6 µM	4 ± 0.42 µM								
CC[C@@]1(OC(=O)CCCCCCCCCCCNC(=O)[C@@H](N)CCC(=O)O)C(=O)OCc2c1cc1n(c2=O)Cc2cc3ccccc3nc2-1 [CPT-D-GL12, (S)-4-amino-5-((12-(((S)-4-ethyl-3,14-dioxo-3,4,12,14-tetrahydro-1H-pyrano[3′,4′:6,7]indolizino[1,2-b]quinolin-4-yl)oxy)-12-oxododecyl)amino)-5-oxopentanoic acid]	7.38 ± 0.2 µM	> 40 µM	> 40 µM	> 40 µM	2.1 ± 0.68 µM	25.5 ± 1 µM	3.8 ± 0.8 µM	5.1 ± 1.1 µM								
CC[C@@]1(OC(=O)CNC(=O)[C@H](CCC(=O)N[C@@H](CCC(=O)N[C@@H](CCC(=O)N[C@@H](CC(=O)OC(C)(C)C)C(=O)N[C@@H](CCC(=O)OC(C)(C)C)C(=O)OC(C)(C)C)C(=O)OC(C)(C)C)C(=O)OC(C)(C)C)NC(=O)OC(C)(C)C)C(=O)OCc2c1cc1n(c2=O)Cc2cc3ccccc3nc2-1 [CPT-HT-J-L2, 14,22,24,9-tetra-tert-butyl 1-((S)-4-ethyl-3,14-dioxo-3,4,12,14-tetrahydro-1H-pyrano[3′,4′:6,7]indolizino[1,2-b]quinolin-4-yl) (4S,9S,14S,19S,22S)-19-(2-(tert-butoxy)-2-oxoethyl)-4-((tert-butoxycarbonyl)amino)-3,7,12,17,20-pentaoxo-2,8,13,18,21-pentaazatetracosane-1,9,14,22,24-pentacarboxylate]									> 40 µM	> 40 µM	> 40 µM	> 40 µM	> 40 µM	> 40 µM	> 40 µM	> 40 µM
CC[C@@]1(OC(=O)CCCNC(=O)[C@H](CCC(=O)N[C@@H](CCC(=O)N[C@@H](CCC(=O)N[C@@H](CC(=O)OC(C)(C)C)C(=O)N[C@@H](CCC(=O)OC(C)(C)C)C(=O)OC(C)(C)C)C(=O)OC(C)(C)C)C(=O)OC(C)(C)C)NC(=O)OC(C)(C)C)C(=O)OCc2c1cc1n(c2=O)Cc2cc3ccccc3nc2-1 [CPT-HT-J-L4, 1,11,16,3-tetra-tert-butyl 26-((S)-4-ethyl-3,14-dioxo-3,4,12,14-tetrahydro-1H-pyrano[3′,4′:6,7]indolizino[1,2-b]quinolin-4-yl) (3S,6S,11S,16S,21S)-6-(2-(tert-butoxy)-2-oxoethyl)-21-((tert-butoxycarbonyl)amino)-5,8,13,18,22-pentaoxo-4,7,12,17,23-pentaazahexacosane-1,3,11,16,26-pentacarboxylate]									> 40 µM	> 40 µM	> 40 µM	> 40 µM	> 40 µM	> 40 µM	> 40 µM	> 40 µM

Reference: paper PMC6214026, “PSMA-Oriented Target Delivery of Novel Anticancer Prodrugs: Design, Synthesis, and Biological Evaluations of Oligopeptide-Camptothecin Conjugates” (International Journal of Molecular Sciences, 2018)
